13 compounds from patent US20220267269A1, “COMPOUNDS FOR THE MODULATION OF PROPROTEIN CONVERTASE SUBTILISIN/KEXIN TYPE 9 (PCSK9)” (SRX Cardio, LLC, priority 2019, published 2022) can be followed below.

The target of data set [1] is T1, PCSK9 (Homo sapiens, UniProt Q8NBP7).
T1 construct: purchased Cayman Chemical 20631
The data set can be described thus: LDLR flow cytometric analysis (LDLR recovery in cells treated with recombinant PCSK9). The class given is cell-based. As to the method: LDLR levels were measured using flow cytometry or fluorescence activated cell sorting (FACS) using protocols adapted from Benjannet et al., “Effects of the prosegment and pH on the activity of PCSK9: evidence for additional processing events” J Biol Chem. 285(52): 40965-40978 (2010) and “Composition and Methods of Use of Small Molecules as Binding Ligands for the Modulation of Proprotein Convertase Subtilisin/Kexin Type 9 (PCSK9) Protein Activity” (WO2016029037), which are incorporated by reference in their entirety.
Cells, such as HepG2, HuH7, FL83B, or a cell line transfected with a short-hairpin PCSK9 knockdown sequence such as HepG2/shPCSK9, HuH7/shPCSK9, or FL83B/shPCSK9 were cultured in media composed of complete, high glucose DMEM (Invitrogen) with 10% fetal bovine serum (Life Technologies), supplemented with penicillin-streptomycin (Life Technologies). Cells were plated in a 24-well plate, at 125 k cells/well, and cultured at 37° C. for 12-24 h. Culture media was removed and replaced with fresh culture media or culture media plus a predetermined amount of recombinant PCSK9 (for example, a final PCSK9 concentration of 5 μg/mL; Cayman Chemical, Ann Arbor, Mich., Catalog #20631). Wells evaluating test compounds were dosed with concentrations ranging from 0 nM to 100 μM.
Following an incubation period of 4-6 hours at 37° C., the media was removed and the cells rinsed by adding 0.5 ml of complete D-PBS (i.e., Dulbecco's phosphate buffered saline (D-PBS, Life Technologies) supplemented with 0.5% bovine serum albumin (BSA, Sigma) and 1 g/L glucose (Sigma)). The wash media was carefully aspirated, and cells released from the plate using 200 μL of TrypLE Express (Life Technologies) by incubating for 5-10 minutes at 37° C. The TrypLE-Cell suspension was inactivated by adding 100 μL of Fetal Bovine Serum, transferred to a v-bottom plate, and centrifuged at 250×gravity for 5 minutes. Following centrifugation, the supernatant was aspirated and the cell pellet is resuspended in 100 μL of complete D-PBS, and centrifuged at 250×gravity for 5 minutes. Following centrifugation, the supernatant was aspirated and the cell pellet was resuspended in 100 μL of antibody staining solution (600 μL of anti-LDLr-PE in complete D-PBS) and incubated on ice, protected from light, for 30 minutes. The cells were then pelleted by centrifugation, resuspended in 100 μL of 4′,6-Diamidino-2-phenylindole (DAPI, Cayman Chemical) or 7-aminoactinomycin D (7AAD, Life Technologies) staining solution to measure cell viability.
Cells were analyzed for both cell viability marker (dead cells) and LDLR in live cells using a flow cytometer per the manufacturer's operating manual. Cells incubated with small molecule compounds that are inhibitors of PCSK9 will be expected to show increased amounts of LDLR, relative to control (no compound) specimens, and cells incubated with small molecule compounds that are activators of PCSK9 will be expected to show decreased amounts of LDLR relative to control (no compound) specimens.
The percentage recovery in the LDLR assay at 10 μM concentration is provided as follows: +++: >80% recovery; ++: 40-80% recovery; +: 0-40% recovery.
The LDL-R EC50 is provided as follows: +++: <1; ++: 1 μM-5 μM; +: >5 μM.

The target in data set [2] is T1, PCSK9. Put plainly: Fluorescent-LDL uptake analysis by flow cytometric analysis. Type of data set: cell-based. How it is done:
Cells, such as HuH7, FL83B, or a cell line transfected with a short-hairpin PCSK9 knockdown sequence such as HuH7/shPCSK9 or FL83B/shPCSK9 were plated and cultured at 37° C. for 12-24 h. Culture media was removed and replaced with fresh lipoprotein-depleted culture media supplemented with 5 μg/mL of fluorescently labeled LDL or lipoprotein-depleted culture media supplemented with 5 μg/mL of fluorescently labeled LDL plus a concentration of recombinant PCSK9 (for example 5 μg/mL recombinant PCSK9; Cayman Chemical, Cat. #20631). Examples of fluorescently labeled LDL include: DiI-LDL (Kalen Biomedical), or LDL conjugated to Dylight (e.g., LDL-Dylight 488, or LDL-Dylight 550 (Cayman Chemical, Cat. #10011229)). Lipoprotein-depleted culture media was composed of DMEM (Invitrogen) with 10% lipoprotein-depleted fetal bovine serum (Kalen Biomedical) and supplemented with penicillin-streptomycin (Life Technologies). Cells were dosed with small molecule test compounds at doses ranging from 0 nM to 100 μM, following a protocol adapted from Benjannet et al., “Effects of the prosegment and pH on the activity of PCSK9: evidence for additional processing events” J Biol Chem. 285(52):40965-40978 (2010), which is incorporated by reference in its entirety.
Following an incubation period of specified length, such as 16 hours, the lipoprotein-depleted media was removed and cells rinsed three times with a rinse solution (Dulbecco's phosphate buffered saline (D-PBS, Life Technologies), supplemented with 0.5% bovine serum albumin (BSA, Sigma) and 1 g/L glucose (Sigma)). The fluid was then removed, and cells are released from the plate using TrypLE Express (Life Technologies) per manufacturer's recommended procedures, such as incubation for 5-10 minutes at 37° C. The TyrpLE-Cell suspension was then transferred to 15 mL conical tubes, volume was increased to 2 mL with D-PBS supplemented with 0.5% BSA, and […], and the tubes were centrifuged at 250×gravity for 10 minutes. Following centrifugation, the supernatant was aspirated and the cell pellet was resuspended in 300 μL PBS and counterstained with 4′,6-diamidino-2-phenylindole (DAPI, Cayman Chemical) as a cell viability marker, other cell viability markers such as 7-aminoactinomycin D (7AAD, Life Technologies) have also been described in the art.
Cells were analyzed by for both 7AAD (dead cells) and fluorescent LDL in live cells using a flow cytometer per the manufacturer's operating manual. Cells incubated with small molecule compounds that are inhibitors of PCSK9 will be expected to show increased amounts of LDL fluorescence, relative to control (no compound) specimens, and cells incubated with small molecule compounds that are activators of PCSK9 will be expected to show decreased amounts of LDL fluorescence relative to control (no compound) specimens.
The LDL-uptake EC50 is provided as follows: +++: <0.5 μM; ++: 0.5-1μM; +: >1 μM.
In general terms: Flow cytometry measures light scatter and fluorescence of single cells or particles in a stream.

Data set [3] can be described thus: Microsomal stability analysis, mouse. Type of data set: in vitro ADME. The conditions noted are these: pH 7.4; mouse liver microsomes, 1 μM test compound; read-out: Microsomal Stability t1/2. How it is done:
(§1) Microsomal stability was determined as follows:
(§2) The assay was carried out in 96-well microtiter plates at 37° C. Reaction mixtures (25 μL) contained a final concentration of 1 μM test compound, 0.5 mg/mL liver microsomes protein, and 1 mM NADPH and/or 1 mM UDPGA (with alamethicin) in 100 mM potassium phosphate, pH 7.4 buffer with 3 mM MgCl2. At each of the time points (for example, 0, 15, 30, and 60 minutes), 150 μL of quench solution (100% acetonitrile with 0.1% formic acid) with internal standard was transferred to each well. Besides the zero minute controls, mixtures containing the same components except the NADPH can also be prepared as the negative control. Verapamil was included as a positive control to verify assay performance. Plates were sealed, vortexed, and centrifuged at 4° C. for 15 minutes at 4000 rpm. The supernatant was transferred to fresh plates for LC/MS/MS analysis. The extent of metabolism was calculated as the disappearance of the test compound, compared to the 0-min time incubation. Initial rates were calculated for the compound concentration and used to determine t½ values.
In general terms: Microsomes from liver hold many membrane-bound enzymes, among them those of drug oxidation.

Data set [4] addresses T1, PCSK9. Put plainly: Biodesy direct binding measurement (second harmonic generation). The conditions noted are these: Biodesy Delta System. From the text:
Direct binding can be measured using the commercially available Biodesy Delta System (BDS, http://www.biodesy.com/products/; accessed Aug. 1, 2018). The BDS is a laser-based approach that utilizes second harmonic generation from a labeled protein to detect ligand binding, the method of which is covered and described by U.S. Pat. Nos. 9,395,358 and 8,932,822, and has been commercialized by Biodesy Inc. (South San Francisco, Calif.).

Data set [5] is described as follows: Microsomal stability analysis, human. The conditions noted are these: pH 7.4; human liver microsomes, 1 μM test compound; read-out: Microsomal Stability t1/2. Type of data set: in vitro ADME. As to the method: as §1, §2
The nature of data set [6]: Microsomal stability analysis, rat. Type of data set: in vitro ADME. The note with it: pH 7.4; rat liver microsomes, 1 μM test compound; read-out: Microsomal Stability t1/2. As to the method:
as §1, §2

T1 sequence (Q8NBP7 153-692): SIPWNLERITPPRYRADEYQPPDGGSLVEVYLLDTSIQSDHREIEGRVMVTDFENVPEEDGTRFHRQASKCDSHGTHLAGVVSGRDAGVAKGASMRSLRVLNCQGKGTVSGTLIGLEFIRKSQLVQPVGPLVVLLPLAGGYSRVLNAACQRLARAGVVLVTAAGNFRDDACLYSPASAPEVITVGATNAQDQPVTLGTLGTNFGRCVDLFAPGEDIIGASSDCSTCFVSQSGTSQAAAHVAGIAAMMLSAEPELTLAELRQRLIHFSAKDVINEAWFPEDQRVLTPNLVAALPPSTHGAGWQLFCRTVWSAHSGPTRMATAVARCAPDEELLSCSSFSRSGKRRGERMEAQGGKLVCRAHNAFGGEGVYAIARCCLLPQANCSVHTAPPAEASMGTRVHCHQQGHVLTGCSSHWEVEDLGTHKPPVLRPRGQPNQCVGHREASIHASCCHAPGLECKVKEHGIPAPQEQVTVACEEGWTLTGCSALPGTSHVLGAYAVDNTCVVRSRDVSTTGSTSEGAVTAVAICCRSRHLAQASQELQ

On to `c1ccc(-c2ccc(C3CCCN(C4CCCC4)C3)cc2)cc1` (stereo not shown) [1,003, 3-([1,1′-biphenyl]-4-yl)-1-cyclopentylpiperidine], for which the EC50 at PCSK9 [1] lay in the range of 1000 to 5000 nM.
`c1cc(-c2ccc(C3CCCN(CC4CCCC4)C3)cc2)ccn1` (stereo not shown) [1,005, 4-(4-(1-(cyclopentylmethyl)piperidin-3-yl)phenyl) pyridine]: the EC50 at PCSK9 [1] is 1000 to 5000 nM.
`FC(F)(F)c1cccc(-c2ccc(C3CCCN(CC4CCCC4)C3)cc2)c1` (stereo not shown) [1,013, 1-(cyclopentylmethyl)-3-(3′-(trifluoromethyl)-[1,1′-biphenyl]-4-yl)piperidine] registered an EC50 on PCSK9 [2] greater than 1000 nM.
In the case of `FC(F)(F)c1cc(C2CCCN(CC3CCOC3)C2)ccc1-c1ccccc1` (stereo not shown) [1,027, 1-((tetrahydrofuran-3-yl)methyl)-3-(2-(trifluoromethyl)-[1,1′-biphenyl]-4-yl)piperidine], at PCSK9 [2], the EC50 is greater than 1000 nM.
On the same count and under the same terms, the figure for `Fc1cc(F)cc(-c2ccc(C3CCCN(CC4CCCC4)C3)cc2)c1` (stereo not shown) [1,029, 1-(cyclopentylmethyl)-3-(3′,5′-difluoro-[1,1′-biphenyl]-4-yl)piperidine] is 500 to 1000 nM; for `Cc1cc(-c2ccc(Cl)cc2)ccc1C1CCCN(CC2CCCC2)C1` (stereo not shown) [1,039, 3-(4′-chloro-3-methyl-[1,1′-biphenyl]-4-yl)-1-(cyclopentylmethyl) piperidine] it is 500 to 1000 nM.
The same measure, in the same setting: the figure for `Cc1cc(C2CCCN(C3CCCC3)C2)ccc1-c1ccc(Cl)cc1` (stereo not shown) [1,040, 3-(4′-chloro-2-methyl-[1,1′-biphenyl]-4-yl)-1-cyclopentylpiperidine] is 500 to 1000 nM.
Consider `Fc1ccc(-c2ccc(C3CCCN(CC4CC4)C3)cc2)cc1` (stereo not shown) [Compound 1,001, 1-(cyclopropylmethyl)-3-(4′-fluoro-[1,1′-biphenyl]-4-yl)piperidine], for which the half-life at 1 μM was 25 min in data set [3], greater than 120 min in data set [5] and 10 min in data set [6]. Also, the ΔSHG on PCSK9 [4] was greater than 10%. The EC50 on PCSK9 [1] was in the range of 1000 to 5000 nM.
For `c1ccc(-c2ccc(C3CCCN(CC4CCCC4)C3)cc2)cc1` (stereo not shown) [Compound 1,006, 3-([1,1′-biphenyl]-4-yl)-1-(cyclopentylmethyl)piperidine], the half-life at 1 μM worked out at 28 min in data set [3], 22 min in data set [5] and 13 min in data set [6]. Moreover, the half-maximal effective concentration (EC50) at PCSK9 [2] lay within 500 to 1000 nM; at PCSK9 [1], 1000 to 5000 nM.
For `Fc1ccc(-c2ccc(C3CCCN(CC4CCCC4)C3)cc2)cc1` (stereo not shown) [Compound 1,009, 1-(cyclopentylmethyl)-3-(4′-fluoro-[1,1′-biphenyl]-4-yl)piperidine], in that order: 67 min, 86 min, 13 min, less than 500 nM and 1000 to 5000 nM.
The like results for `Clc1ccc(-c2ccc(C3CCCN(CC4CCCC4)C3)cc2)cc1` (stereo not shown) [Compound 1,010, 3-(4′-chloro-[1,1′-biphenyl]-4-yl)-1-(cyclopentylmethyl)piperidine] were, in that order, 76 min, greater than 120 min, 15 min, less than 500 nM and greater than 5000 nM.
In the case of `FC(F)(F)c1ccc(-c2ccc(C3CCCN(CC4CCCC4)C3)cc2)cc1` (stereo not shown) [Compound 1,011, 1-(cyclopentylmethyl)-3-(4′-(trifluoromethyl)-[1,1′-biphenyl]-4-yl)piperidine], the results for the half-life at 1 μM in data set [3], in data set [5] and in data set [6] were 61 min, greater than 120 min and 17 min, respectively. Besides, the EC50 at PCSK9 [2] is less than 500 nM; at PCSK9 [1], less than 1000 nM.
Consider `Fc1ccc(-c2ccc(C3CCCN(Cc4ccccc4)C3)cc2)cc1` (stereo not shown) [Compound 1,035, 1-benzyl-3-(4′-fluoro-[1,1′-biphenyl]-4-yl)piperidine], for which the EC50 at PCSK9 [2] is 500 to 1000 nM; on PCSK9 [1], greater than 5000 nM.

A word on the EC50: it is the midpoint of the concentration-response curve.
